In one data set the test system is ERK. As to the kind of experiment: Western blot of phosphorylated and total ERK in U87 cells. In kind it is cell-based, Human. Particulars: 25 μM, 10, 30, 60 and 90 min. The protocol:
(§1) The total protein concentration of each sample was determined using the BCA Protein Assay Kit (Sangon Biotech, Shanghai, China). Equal protein extracts (45‐μg protein per lane) were separated by SDS‐PAGE and electrophoretically transferred to PVDF membranes (Millipore, Bedford, MA, USA). Then, the membranes were incubated with anti‐phosphorylated and total http://www.guidetopharmacology.org/GRAC/FamilyDisplayForward?familyId=514, http://www.guidetopharmacology.org/GRAC/FamilyDisplayForward?familyId=518, and http://www.guidetopharmacology.org/GRAC/FamilyDisplayForward?familyId=519 antibodies (1:1,000; Cell Signaling Technology) at 4°C overnight, followed by incubation with IRDye 680LT fluorescent secondary antibody (LI‐COR Biosciences, Lincoln, NE, USA). Proteins were visualized using the Odyssey Fc Imaging System (LI‐COR Biosciences, Lincoln, NE, USA). Mouse α‐tubulin antibody was used as protein loading controls. The immuno‐related procedures used comply with the recommendations made by the British Journal of Pharmacology (Alexander et al., 2018).
On the technique in general: In western blotting, separated proteins are transferred to a membrane and probed.

A further data set relates to p38‐MAPK. As to the kind of experiment: Western blot of phosphorylated and total p38-MAPK in U87 cells. Particulars: 25 μM, 10, 30, 60 and 90 min. The format is cell-based, Human. How it is done: as §1, with “After treatment with bepridil for 0, 30, 60, and 90 min, cells were collected and lysed in RIPA buffer (Beyotime, Nanjing, China) supplemented with protease inhibitor (Beyotime). The total” for “The total”

Another data set deals with JNK. Briefly: Western blot of phosphorylated and total JNK in U87 cells. The format is cell-based, Human. Conditions: 25 μM, 10, 30, 60 and 90 min. The protocol:
as §1, with “After treatment with bepridil for 0, 30, 60, and 90 min, cells were collected and lysed in RIPA buffer (Beyotime, Nanjing, China) supplemented with protease inhibitor (Beyotime). The total” for “The total”

The nature of data set [1]: LC-MS analysis of brain homogenate after oral bepridil. Particulars: 50 mg·kg^−1 p.o., brain homogenate collected at 2 hr. The format is in vivo, athymic BALB/c nude mice. The protocol: Athymic BALB/c nude mice were administered bepridil by oral gavage at doses of 50 mg·kg^−1 as described above. Two hours later, mice were killed, and the brain sample was homogenized using the tissue homogenizers (Bertin Instruments, Paris, France) in ice‐cold deionized water at a concentration of 3 ml·g^−1 tissue. Then, methanol with 0.1% formic acid was added to the brain homogenate in a 4:1 proportion (vol/vol) and centrifuged at 18,188× g and 4°C for 10 min to precipitate protein. The supernatant was transferred to a vial to be injected directly into the LC‐MS. The chromatographic system consisted of Shimadzu quaternary pump, vacuum degasser, and autosampler (Shimadzu, LC‐20ADXR, Tokyo, Japan) coupled to https://sciex.com/products/mass-spectrometers/triple-quad-systems, API‐4000 mass spectrometer (SCIEX, Redwood City, CA, USA). HPLC separation was performed on a Thermo Syncronis C8 column 100 × 2.1 mm, 5.0 μm. The mobile phase consisted of methanol (A) and water with 0.1% formic acid (B), measure time was 9 min per run. A flow rate of 0.3 ml·min^−1 was used using a gradient elution of 70% B at 1 min and 5–70% B between 1 and 5 min and maintained for 2 min at 5% B and back to 70% B at 7–7.1 min. […] The CE for bepridil was optimized to 30 V. The precursor‐to‐product ions (Q1 → Q3) selected for bepridil during quantitative optimization were (m/z) 367.1 → 84.3/184.3.

In another data set the test system is U87‐Luc xenografts. As to the kind of experiment: U87-luciferase intracranial xenograft, in vivo bioluminescent imaging. Particulars: 50 mg·kg^−1 p.o. once a day for 14 days, from 16 days after implantation; n = 5 mice per group. Also noted: species or system athymic BALB/c nude mice. How it is done:
The athymic BALB/c nude mice were anaesthetized by subjecting them to 3% isoflurane (RWD Life Science, Shenzhen, China) in a mixture of 30% O2 and 70% N2O. […] The mouse head was maintained within a stereotactic frame (RWD Life Science), allowing a precise and reproducible injection. The coordinate of the injection site was 0.5 mm anterior and 2.5 mm right from the bregma and at a depth of 3 mm. U87-Luc cells (COBIOER) were assessed by the trypan blue exclusion assay. Only cell suspensions with greater than 95% viability were used and implanted into the right striatum of nude mice. U87-Luc cells (5 × 10^5 in 5-μl PBS) were inoculated into the right striatum of each mouse at a controlled flow rate of 0.5 μl·min^-1, and the total injection volume was about 5 μl. […] Tumours were measured by bioluminescence using an IVIS Spectrum CT Imaging System (PerkinElmer, Waltham, MA, USA), which captured the luminescence signal emitted from the engrafted tumour. […] Signal intensity was quantified within a region of interested over the head, as defined by Living Image software. All images represent 2-min exposure time, and the average number of photons·s^-1·cm^-2 per steradian were recorded. The data were analysed using Living Image 4.4.5 software (PerkinElmer, RRID:SCR_014247).

As for `CC(C)COCC(CN(Cc1ccccc1)c1ccccc1)N1CCCC1` (centres unmarked) [Bepridil, N‐benzyl‐N‐(3‐isobutoxy‐2‐pyrrolidin‐1‐yl‐propyl)aniline], the “Effect on ERK activity” value in the data set on ERK is “not affected”. The “Effect on p38-MAPK activity” value in the data set on p38‐MAPK was “activated”. The “Effect on JNK activity” value in the data set on JNK is “activated”. For the same compound, the “Crossing of the BBB into brain tissue” value in data set [1] is “can cross the BBB and get into brain tissue”. The “Growth of brain-grafted U87-Luc tumour (bioluminescence)” value in the data set on U87‐Luc xenografts was “successfully restrained tumour growth”.

The record behind these values is PMC6609550, “Blockade of the forward Na^+/Ca^2+ exchanger suppresses the growth of glioblastoma cells through Ca^2+‐mediated cell death” (British Journal of Pharmacology, 2019).
